Data: patent US5726195A, “Aminoacyl adenylate mimics as novel antimicrobial and antiparasitic agents” (Cubist Pharmaceuticals, Inc., priority 1996, dated 1998)
Converted amounts (≈) assume the structure as drawn.

Columns and labels:
[1] = molecular target: E. Coli. IleRS (isoleucyl-tRNA synthetase) (Escherichia coli, UniProt P00956); assay: Inhibition of isoleucyl-tRNA synthetase (aminoacylation of tRNA with [3H]isoleucine); format: biochemical; conditions: E. coli enzyme; irreversible inhibitors: values are 50% of the active enzyme concentration; read-out: IC50 E.Coli. IleRS
Experimental: The extent of aminoacylation of tRNA with isoleucine catalyzed by isoleucyl-tRNA synthetase enzyme was measured by monitoring the incorporation of [3H] isoleucine into trichloroacetic acid-precipitable tRNA in the presence of a compound of Formula I, as compared with activity in the absence of inhibitor. The isoleucyl-tRNA synthetase enzymes are well known in the prior art and can be obtained and purified by known methods (for example see: D. Kern et at., Biochimie, 61, 1257-1272 (1979) and J. Gilbart et al., Antimicrobial Agents and Chemotherapy, 37 (1), 32-38 (1993)).
Isoleucyl-tRNA synthetase enzyme (0.08-2.0 nM, preferably, 0.4 nM) was first pre-incubated at 25° C. with 0.05 mg/ml bovine serum albumin, 10 mM DTT, 2.5% dimethyl sulfoxide, with or without a compound of Formula I, for 20 minutes. At this point a substrate solution (a solution containing the following: ATP, [^3 H]isoleucine, tRNA, HEPES, magnesium chloride, and potassium chloride) was added to give a final concentration of 0.0286 mg/ml bovine serum albumin, 5.7 mM DTT, 4 mM ATP, 5-20 μM [^3 H] isoleucine (1-15 Ci/mmol), 90 μM crude tRNA or 2 μM isoleucine specific tRNA, 1.4% dimethyl sulfoxide, 30 mM HEPES (pH 7.5), 10 mM magnesium chloride, and 50 mM potassium chloride and incubated at 25° C. Aliquots were removed at selected times (e.g. 5, 10, 20 minutes) and applied to 3MM filter paper discs (Whatman) and then dropped into 5% (wt/vol) trichloroacetic acid for >5 minutes. Filters were washed for three 10-minute periods in 5% trichloroacetic acid, rinsed in 95% ethanol and diethyl ether, and radioactivity was measured with Betafluor™ (National Diagnostics) by liquid scintillation counting.
Inhibitor activity is reported in Table II as an IC50 value (inhibitor concentration causing 50% inhibition of enzyme activity) per a known amount of active enzyme. In the case of irreversible inhibitors (1:1 stoichiometry) these values are 50% of the active enzyme concentration. The IC50 (in nM, E. coli) values of representative compounds of the present invention are listed in the second column of Table II.

[2] = test system: S. epidermidis ATCC 33501; assay: Whole cell antimicrobial screen, MIC; format: cell-based; conditions: Staphylococcus epidermidis, ATCC33501
Experimental: (§1) Compounds were tested for antimicrobial activity against a panel of organisms according to standard procedures described by the National Committee for Clinical Laboratory Standards (NCCLS document M7-A3, Vol. 13, No. 25, 1993/NCCLS document M27-P, Vol. 12, No. 25, 1992). Compounds were dissolved in 100% dimethyl sulfoxide and were diluted to the final reaction concentration (0.1 μg/mL-500 μg/mL) in microbial growth media. In al cases the final concentration of dimethyl sulfoxide incubated with cells is less than or equal to 1%. For minimum inhibitory concentration (MIC) calculations, 2-fold dilutions of compounds were added to wells of a microtiter plate containing 5×10^4 bacteria or fungal cells in a final volume of 100 lambda of an appropriate media (Mueller-Hinton Broth; Haemophilus Test Media; Mueller-Hinton Broth+5% Sheep Blood; or […]). Plates were incubated overnight at an appropriate temperature (30° C.-37° C.) and optical densities (measure of cell growth) were measured using a commercial plate reader. The MIC value is defined as the lowest compound concentration inhibiting growth of the test organism.

E. faecalis ATCC 33011 = assay: Whole cell antimicrobial screen, MIC; format: cell-based; conditions: Enterococcus faecalis, ATCC33011
Experimental: as §1

[3] = test system: S. saprophyticus ATCC 35552; assay: Whole cell antimicrobial screen, MIC; format: cell-based; conditions: Staphylococcus saprophyticus, ATCC35552
Experimental: as §1

E. faecium ATCC 6569 = assay: Whole cell antimicrobial screen, MIC; format: cell-based; conditions: Enterococcus faecium, ATCC6569
Experimental: as §1

C. albicans ATCC 10231 = assay: Whole cell antimicrobial screen, MIC; format: cell-based; conditions: Candida albicans, ATCC10231
Experimental: as §1

S. aureus ATCC 6538P = assay: Whole cell antimicrobial screen, MIC; format: cell-based; conditions: Staphylococcus aureus, ATCC6538P
Experimental: as §1

S. aureus ATCC 14154 = assay: Whole cell antimicrobial screen, MIC; format: cell-based; conditions: Staphylococcus aureus, ATCC14154
Experimental: as §1

Chain of E. Coli. IleRS (isoleucyl-tRNA synthetase) (P00956 whole entry): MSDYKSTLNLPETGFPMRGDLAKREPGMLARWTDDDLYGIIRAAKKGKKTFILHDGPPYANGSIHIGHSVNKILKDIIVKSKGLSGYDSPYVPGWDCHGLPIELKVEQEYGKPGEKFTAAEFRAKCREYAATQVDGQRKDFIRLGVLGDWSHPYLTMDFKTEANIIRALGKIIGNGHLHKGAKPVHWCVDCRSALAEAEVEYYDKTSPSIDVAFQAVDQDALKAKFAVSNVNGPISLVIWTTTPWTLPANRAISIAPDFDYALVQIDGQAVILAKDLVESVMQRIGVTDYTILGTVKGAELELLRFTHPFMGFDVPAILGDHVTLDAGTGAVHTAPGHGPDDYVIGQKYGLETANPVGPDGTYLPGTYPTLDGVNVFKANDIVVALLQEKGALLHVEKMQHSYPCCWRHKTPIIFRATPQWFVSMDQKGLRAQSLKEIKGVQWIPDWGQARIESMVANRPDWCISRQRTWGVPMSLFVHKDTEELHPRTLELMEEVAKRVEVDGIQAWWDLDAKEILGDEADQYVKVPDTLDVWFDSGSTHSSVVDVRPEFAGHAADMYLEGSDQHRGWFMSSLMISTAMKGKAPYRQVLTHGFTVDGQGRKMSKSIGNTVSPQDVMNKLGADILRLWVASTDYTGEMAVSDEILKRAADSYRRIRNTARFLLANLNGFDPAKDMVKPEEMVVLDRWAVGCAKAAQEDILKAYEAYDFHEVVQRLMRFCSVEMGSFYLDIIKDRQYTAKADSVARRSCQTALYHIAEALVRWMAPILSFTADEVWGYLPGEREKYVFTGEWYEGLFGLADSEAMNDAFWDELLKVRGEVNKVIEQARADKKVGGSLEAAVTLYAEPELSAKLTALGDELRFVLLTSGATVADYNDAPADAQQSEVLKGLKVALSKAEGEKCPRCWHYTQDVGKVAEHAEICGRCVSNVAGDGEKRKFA

| Structure (SMILES) | IC50 [1] [nM] | MIC [2] [µg/mL] | MIC (E. faecalis ATCC 33011) [µg/mL] | MIC [3] [µg/mL] | MIC (E. faecium ATCC 6569) [µg/mL] | MIC (C. albicans ATCC 10231) [µg/mL] | MIC (S. aureus ATCC 6538P) [µg/mL] | MIC (S. aureus ATCC 14154) [µg/mL] |
| --- | --- | --- | --- | --- | --- | --- | --- | --- |
| CC[C@H](C)[C@H](N)C(=O)NS(=O)(=O)OC[C@H]1O[C@@H](CCn2nnc(-c3ccc([N+](=O)[O-])cc3)n2)[C@H](O)[C@@H]1O [VIII] | 0.5 | 10 (≈ 18.4 µM) | > 500 | 100 (≈ 184 µM) | 500 (≈ 920 µM) | > 500 | 500 (≈ 920 µM) | 500 (≈ 920 µM) |
| CC[C@H](C)[C@H](N)C(=O)NS(=O)(=O)OC[C@H]1O[C@@H](CCn2nnc(-c3ccc(C(=O)OC)cc3)n2)[C@H](O)[C@@H]1O [VII] | 0.53 | 10 (≈ 18 µM) | > 500 | 50 (≈ 89.8 µM) | 100 (≈ 180 µM) | > 500 | 100 (≈ 180 µM) | 500 (≈ 898 µM) |
| CC[C@H](C)[C@H](N)C(=O)NS(=O)(=O)OC[C@H]1O[C@@H](CCn2nnc(-c3ccc(Oc4ccc(N)cc4)cc3)n2)[C@H](O)[C@@H]1O [XIII] | 0.4 | 10 (≈ 16.5 µM) | > 500 | 25 (≈ 41.3 µM) | 25 (≈ 41.3 µM) | > 500 | 50 (≈ 82.6 µM) | 100 (≈ 165 µM) |
| CC[C@H](C)[C@H](N)C(=O)NS(=O)(=O)OC[C@H]1O[C@@H](CCn2nnc(-c3ccc(Oc4ccccn4)cc3)n2)[C@H](O)[C@@H]1O [XVI] | 0.7 | 25 (≈ 42.3 µM) | 500 (≈ 845 µM) | 50 (≈ 84.5 µM) | 50 (≈ 84.5 µM) | 100 (≈ 169 µM) | 100 (≈ 169 µM) | 100 (≈ 169 µM) |
| CC[C@H](C)[C@H](N)C(=O)NS(=O)(=O)OC[C@H]1O[C@@H](Cn2nnc(Cc3ccc(Oc4ccccc4)cc3)n2)[C@H](O)[C@@H]1O [XXVII, [S-(R*,R*)]-2,5-anhydro-1-deoxy-1-[5-(4-phenoxyphenylmethyl)-2H-tetrazol-2-yl]-D-allitol 6-(2-amino-3-methyl-1-oxopentyl)sulfamate] | 135 | > 500 | > 500 | > 500 | > 500 | > 500 | > 500 | > 500 |
| CC[C@H](C)[C@H](N)C(=O)NS(=O)(=O)OC[C@H]1O[C@@H](CCn2nnc(-c3ccc(C=C(Br)Br)cc3)n2)[C@H](O)[C@@H]1O [V] | 11 | 25 (≈ 36.6 µM) | 500 (≈ 733 µM) | 25 (≈ 36.6 µM) | 100 (≈ 147 µM) | 500 (≈ 733 µM) | 50 (≈ 73.3 µM) | 100 (≈ 147 µM) |
| CC[C@H](C)[C@H](N)C(=O)NS(=O)(=O)OC[C@H]1O[C@@H](CCn2nnc(-c3ccc(Oc4cccc(C(F)(F)F)c4)cc3)n2)[C@H](O)[C@@H]1O [XIV] | 1.7 | 5 (≈ 7.59 µM) | 100 (≈ 152 µM) | 10 (≈ 15.2 µM) | 10 (≈ 15.2 µM) | > 500 | 10 (≈ 15.2 µM) | 25 (≈ 38 µM) |
| CC[C@H](C)[C@H](N)C(=O)NS(=O)(=O)OC[C@H]1O[C@@H](CCn2nnc(-c3ccc(Oc4ccc(Oc5ccccc5)cc4)cc3)n2)[C@H](O)[C@@H]1O [XV] | 1.8 | 5 (≈ 7.32 µM) | > 500 | 10 (≈ 14.6 µM) | 25 (≈ 36.6 µM) | > 500 | 10 (≈ 14.6 µM) | 10 (≈ 14.6 µM) |
| CC[C@H](C)[C@H](N)C(=O)NS(=O)(=O)OC[C@H]1O[C@@H](CCn2nnc(-c3ccc(Oc4nccs4)cc3)n2)[C@H](O)[C@@H]1O [XVII] | 1 | 25 (≈ 41.8 µM) | > 500 | 50 (≈ 83.7 µM) | 50 (≈ 83.7 µM) | > 500 | 100 (≈ 167 µM) | 500 (≈ 837 µM) |
| CC[C@H](C)[C@H](N)C(=O)NS(=O)(=O)OC[C@H]1O[C@@H](CCn2nnc(CCCOc3ccccc3)n2)[C@H](O)[C@@H]1O [XXIX] | 0.3 | 25 (≈ 44.9 µM) | > 500 | 500 (≈ 898 µM) | > 500 | > 500 | 500 (≈ 898 µM) | > 500 |
| CC[C@H](C)[C@H](N)C(=O)NS(=O)(=O)OC[C@H]1O[C@@H](CCn2nnc(-c3ccc(Oc4ccc(OC)cc4)cc3)n2)[C@H](O)[C@@H]1O [XII] | 3 | < 5 | 500 (≈ 806 µM) | 25 (≈ 40.3 µM) | 10 (≈ 16.1 µM) | 500 (≈ 806 µM) | 25 (≈ 40.3 µM) | 50 (≈ 80.6 µM) |
| CC[C@H](C)[C@H](N)C(=O)NS(=O)(=O)OC[C@H]1O[C@@H](CCn2nnc(-c3ccc(C#Cc4ccc([N+](=O)[O-])s4)cc3)n2)[C@H](O)[C@@H]1O [I, [S-(R*,R*)]-3,6-anhydro-1,2-dideoxy-1-[5-[4-[(5-nitro-2-thienyl)ethynyl]phenyl]-2H-tetrazol-2-yl]-D-allo-heptitol 7-(2-amino-3-methyl-1-oxopentyl)sulfamate] | 1.3 | 1 (≈ 1.54 µM) | > 500 | 2 (≈ 3.08 µM) | > 500 | > 500 | 1 (≈ 1.54 µM) | 5 (≈ 7.7 µM) |
| CC[C@H](C)[C@H](N)C(=O)NS(=O)(=O)OC[C@H]1O[C@@H](CCn2nnc(-c3ccc(C#Cc4cccc([N+](=O)[O-])c4)cc3)n2)[C@H](O)[C@@H]1O [III] | 3 | 1 (≈ 1.55 µM) | > 500 | 5 (≈ 7.77 µM) | > 500 | > 500 | 50 (≈ 77.7 µM) | 50 (≈ 77.7 µM) |
| CC[C@H](C)[C@H](N)C(=O)NS(=O)(=O)OC[C@H]1O[C@@H](CCn2nnc(-c3ccc([N+](=O)[O-])o3)n2)[C@H](O)[C@@H]1O [XXVIII] | 8.8 | 32 (≈ 60 µM) | > 128 | > 128 | > 128 | 500 (≈ 937 µM) | 128 (≈ 240 µM) | 128 (≈ 240 µM) |
